Measurements reported in PMC8881002 (Journal of molecular structure, 2021).

Target: T1, electric eel AChE (Electrophorus electricus, UniProt O42275)
Assay: Kinetic analysis of AChE inhibition
Assay type: biochemical
Settings: not given

T1 sequence (O42275 24-633): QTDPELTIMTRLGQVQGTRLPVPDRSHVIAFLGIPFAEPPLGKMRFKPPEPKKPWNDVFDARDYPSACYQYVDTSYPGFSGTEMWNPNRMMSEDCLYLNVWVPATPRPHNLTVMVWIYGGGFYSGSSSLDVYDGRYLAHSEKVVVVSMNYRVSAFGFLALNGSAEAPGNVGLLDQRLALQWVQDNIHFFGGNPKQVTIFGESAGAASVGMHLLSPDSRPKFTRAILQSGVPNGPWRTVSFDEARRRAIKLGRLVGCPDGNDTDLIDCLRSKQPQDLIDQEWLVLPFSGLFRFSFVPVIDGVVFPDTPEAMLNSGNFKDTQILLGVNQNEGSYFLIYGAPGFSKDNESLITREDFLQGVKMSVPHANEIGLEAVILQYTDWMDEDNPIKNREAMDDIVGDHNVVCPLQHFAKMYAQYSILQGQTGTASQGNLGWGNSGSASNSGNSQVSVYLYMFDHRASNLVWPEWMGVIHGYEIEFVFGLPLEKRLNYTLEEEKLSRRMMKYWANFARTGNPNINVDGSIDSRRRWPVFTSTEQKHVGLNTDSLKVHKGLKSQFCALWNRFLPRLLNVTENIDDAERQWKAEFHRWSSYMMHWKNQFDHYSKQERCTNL

Structure (SMILES) | Ki [nM]
COc1cc2c(cc1OC)C(=O)C(CC1CCN(Cc3cccnc3)CC1)C2 (centres unmarked) [Analog 2, 5,6-dimethoxy-2-((1-(pyridin-3-ylmethyl)piperidin-4-yl)methyl)-2,3-dihydro-1H-inden-1-one] | 62

Same assay, conditions: Lineweaver-Burke double reciprocal plot, electric eel AChE

Structure (SMILES) | type of inhibition
COc1cc2c(cc1OC)C(=O)C(CC1CCN(Cc3cccnc3)CC1)C2 (centres unmarked) [Analog 2, 5,6-dimethoxy-2-((1-(pyridin-3-ylmethyl)piperidin-4-yl)methyl)-2,3-dihydro-1H-inden-1-one] | mixed-type inhibition

Target: T1, electric eel AChE
Assay: biochemical
Settings: not given

Structure (SMILES) | IC50 [nM]
COc1cc2c(cc1OC)C(=O)C(CC1CCN(Cc3ccncc3)CC1)C2 (centres unmarked) [Analog 3, 5,6-dimethoxy-2-((1-(pyridin-4-ylmethyl)piperidin-4-yl)methyl)-2,3-dihydro-1H-inden-1-one] | 334
COc1cc2c(cc1OC)C(=O)C(CC1CCN(Cc3c(Cl)cncc3Cl)CC1)C2 (centres unmarked) [Analog 8, 2-((1-((3,5-dichloropyridin-4-yl)methyl)piperidin-4-yl)methyl)-5,6-dimethoxy-2,3-dihydro-1H-inden-1-one] | 4320
COc1cc2c(cc1OC)C(=O)C(CC1CCN(Cc3ccnc(Br)c3)CC1)C2 (centres unmarked) [Analog 6, 2-((1-((2-bromopyridin-4-yl)methyl)piperidin-4-yl)methyl)-5,6-dimethoxy-2,3-dihydro-1H-inden-1-one] | 1800
COc1cc2c(cc1OC)C(=O)C(CC1CCN(Cc3cccnc3F)CC1)C2 (centres unmarked) [Analog 9, 2-((1-((2-fluoropyridin-3-yl)methyl)piperidin-4-yl)methyl)-5,6-dimethoxy-2,3-dihydro-1H-inden-1-one] | 718
COc1cc2c(cc1OC)C(=O)C(CC1CCN(Cc3cccnc3)CC1)C2 (centres unmarked) [Analog 2, 5,6-dimethoxy-2-((1-(pyridin-3-ylmethyl)piperidin-4-yl)methyl)-2,3-dihydro-1H-inden-1-one] | 51
COc1cc2c(cc1OC)C(=O)C(CC1CCN(Cc3ccncc3Cl)CC1)C2 (centres unmarked) [Analog 7, 2-((1-((3-chloropyridin-4-yl)methyl)piperidin-4-yl)methyl)-5,6-dimethoxy-2,3-dihydro-1H-inden-1-one] | 364
COc1cc2c(cc1OC)C(=O)C(CC1CCN(Cc3cccnc3Br)CC1)C2 (centres unmarked) [Analog 11, 2-((1-((2-bromopyridin-3-yl)methyl)piperidin-4-yl)methyl)-5,6-dimethoxy-2,3-dihydro-1H-inden-1-one] | 1120
COc1cc2c(cc1OC)C(=O)C(CC1CCN(Cc3ccc(C)nc3)CC1)C2 (centres unmarked) [Analog 12, 5,6-dimethoxy-2-((1-((6-methylpyridin-3-yl)methyl)piperidin-4-yl)methyl)-2,3-dihydro-1H-inden-1-one] | 928
COc1cc2c(cc1OC)C(=O)C(CC1CCN(Cc3ccnc(Cl)c3)CC1)C2 (centres unmarked) [Analog 5, 2-((1-((2-chloropyridin-4-yl)methyl)piperidin-4-yl)methyl)-5,6-dimethoxy-2,3-dihydro-1H-inden-1-one] | 2060
COc1cc2c(cc1OC)C(=O)C(CC1CCN(Cc3cccnc3Cl)CC1)C2 (centres unmarked) [Analog 10, 2-((1-((2-chloropyridin-3-yl)methyl)piperidin-4-yl)methyl)-5,6-dimethoxy-2,3-dihydro-1H-inden-1-one] | 414
COc1cc2c(cc1OC)C(=O)C(CC1CCN(Cc3ccccn3)CC1)C2 (centres unmarked) [Analog 1, 5,6-dimethoxy-2-((1-(pyridin-2-ylmethyl)piperidin-4-yl)methyl)-2,3-dihydro-1H-inden-1-one] | 793
COc1cc2c(cc1OC)C(=O)C(CC1CCN(Cc3ccnc4ccccc34)CC1)C2 (centres unmarked) [Analog 4, 5,6-dimethoxy-2-((1-(quinolin-4-ylmethyl)piperidin-4-yl)methyl)-2,3-dihydro-1H-inden-1-one] | 356
